Data from patent US20120137390A1, “MATERIALS AND METHODS FOR REGENERATION AND TRANSFORMATION OF TREES” (ArborGen Inc., priority 2009, published 2012).

Experiments:
Format in all cases: cell-based
[1] = test system: E. grandis clone 6075 explants; assay: Adventitious shoot regeneration from explants on regeneration medium, clone 6075
Procedure: (§1) Plant Materials and culture conditions. All elite clones were maintained as shoot clumps in Eucalyptus maintenance (EM) medium (Table 1) in magenta boxes or large disposable vessels and subcultured every 4-6 weeks. Shoot clumps were divided as needed and maintained as stock culture. Unless noted otherwise, all cultures were grown under shaded, cool fluorescent light with a light intensity of 30-40 gE/m^2/s with a photoperiod of 16 hours, and a temperature of 21° C.
(§2) Although leaves, petioles, internodes, floral tissues, and embryogenic tissues can be used for transformation and subsequent regeneration, leaf explants were selected because leaves are abundant. For transformation, explants of E. grandis clones 6075 and 6084 were incubated with Agrobacterium and were placed on co-culture medium, which was the same as the regeneration medium (Table 2) except with the following modifications: the addition of Agrobacterium inducer acetosyringone and the addition of plant growth regulators that are enriched in auxin. MS medium (Murashige and Skoog 1962) was used in the present co-culture medium; however, other salt media, such as Woody Plant Medium (WPM) salts (Loyd and McCown, 1980) or Lepoivre medium, may be used. Also, other Agrobacterium inducers may be used. Plant explants were co-cultured for four days under low light conditions or in the dark on the co-culture medium.
(§3) To test the ability of various cytokinins to stimulate adventitious regeneration, the effects of 4-CPPU, Zeatin, TDZ, meta-topolin, and adenine sulfate were compared. The levels of cytokinins varied from 0.025 to 10 μM. The base medium for this matrix is named H2—2.0 (or H2—2 for short), which is the primary MS-based regeneration medium (Table 2). The medium has been effective to induce shoot regeneration from many Eucalyptus species including E. grandis, E. dunnii, E. camaldulensis, E. urophylla, E. occidentalis, and E. saligna. The antibiotic timentin was added at 250 mg/L final concentration. Shoot regeneration was measured as the frequency of explants produced shoots. Explants were cultured on the regeneration medium for about 8-10 weeks before collection of final regeneration data.

[2] = test system: E. grandis clone 6084 explants; assay: Adventitious shoot regeneration from explants on regeneration medium, clone 6084
Procedure: as §1, §2, §3

[3] = test system: E. urophylla X grandis S-519; assay: Regeneration screening matrix, clone S-519; conditions: meta-topolin at least 2.5 μM, clone S519
Procedure: as §3
(§4) Combinations of meta-mopolin, 4-CPPU, and TDZ that gave the best regeneration across multiple experiments were combined with two standard regeneration media that have worked with other clones in the past to become a regeneration screening matrix for new clonal material.

[4] = test system: E. amplifolia clone EA5490; assay: Regeneration screening matrix, clone EA5490; conditions: meta-topolin at least 2.5 μM
Procedure: as §3, §4

[5] = lower concentrations of 4-CPPU (0.025, 0.05 μM)

Compound: O=C(Nc1ccccc1)Nc1cnns1 [TDZ, 1-phenyl-3-(1,2,3-thiadiazol-5-yl)urea]
- promotion of shoot regeneration (in words) ([1]; TDZ alone at 0.1 μM): not effective in promotion of shoot regeneration
- promotion of shoot regeneration (in words) ([2]; TDZ alone at 0.1 μM): not effective in promotion of shoot regeneration

Compound: O=C(Nc1ccccc1)Nc1ccnc(Cl)c1 [4-CPPU, N-(2-Chloro-4-pyridyl)-N′-phenylurea]
- adventitious shoot formation (in words) ([1]; 4-CPPU at 0.1 μM): effective
- adventitious shoot formation (in words) [1, 5]: not effective in induce adventitious shoot formation
- adventitious shoot formation (in words) ([2]; 4-CPPU at 0.1 μM): effective
- adventitious shoot formation (in words) [2, 5]: not effective in induce adventitious shoot formation

Compound: Oc1cccc(CNc2ncnc3nc[nH]c23)c1 [meta-topolin, N^6-(meta-hydroxybenzyl)adenine]
- adventitious shoot formation (in words) ([1]; meta-topolin at least 2.5 μM): significant increase in adventitious shoot formation
- adventitious shoot formation (in words) ([2]; meta-topolin at least 2.5 μM): significant increase in adventitious shoot formation
- adventitious shoot regeneration (in words) [3]: significantly higher adventitious shoot regeneration
- adventitious shoot regeneration (in words) [4]: significantly higher adventitious shoot regeneration
